Values after ≈ are worked out from the molar mass of the structure shown.
Tests used:
[1] = tested on: ANKA strain of P. berghei; assay: single dose STI in vivo screen in infected mice; design: species or system Plasmodium berghei
Summary of the method: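 Groups of 3-5 Moro SPF or NMRI mice infected with the ANKA strain of P. berghei received a single dose of trioxolane on day one post-infection. The compound was given in 3% ethanol and 7% Tween 80 or in SSV (0.5% w/v CMC, 0.5% v/v benzyl alcohol, 0.4% v/v Tween 80, 0.9% w/v sodium chloride in water). Antimalarial activity was scored as percent reduction in parasitemia on day three and as survival time versus untreated controls. Survival to day 30 counted as cure.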

[2] = tested on: parasitemia (malaria infection); assay: onset of action and recrudescence experiments; format: in vivo; conditions: single 100 mg/kg po (SSV) on day +3 post-infection; recrudescence = >5% parasitemia; followed up to 60 days; (n/5) = animals
Experimental: The onset of drug action was determined after a single fixed dose of 100 mg/kg (SSV vehicle) po to groups of five animals on day +3 post-infection (day 0).

[3] = tested on: ANKA strain of Plasmodium berghei; assay: single dose ED50/ED90/ED99 determinations in infected mice; format: in vivo
Summary of the method: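 Mice (Moro SPF or NMRI, n=3 per group) infected with P. berghei ANKA received a single dose on day 1 post-infection, vehicle 0.5% CMC/0.5% benzyl alcohol/0.4% Tween 80/0.9% NaCl in water. Read-out is percent reduction in parasitemia on day 3; ED values by nonlinear fitting.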

P. berghei ANKA strain [4] = assay: treatment: 3x10 mg/kg p.o. divided dose vs 1x30 mg/kg po single dose in infected mice; format: in vivo, Plasmodium berghei; conditions: for Activity (%) p.o. SSV: percent reduction of parasitemia day 4
Experimental: Moro NMRI male mice (Fü Albino specific pathogen free) weighing 18±2 g were infected intravenously (i.v.) with 2×10^7 P. berghei ANKA strain-infected erythrocytes from donor mice on day 0 of the experiment. From donor mice with circa 30% parasitemia, heparinized blood was taken and diluted in physiological saline to 10^8 parasitized erythrocytes per ml. An aliquot (0.2 ml) of this suspension was injected i.v. into experimental and control groups of mice. […] Throughout the experiments, mice were kept in groups of three or five animals in Makrolon type II cages in an air-conditioned animal room at 22 to 23° C.
They were administered per os (p.o.) in a total volume of 0.01 ml per gram of mouse. The activity of the compound was determined by a variety of methods outlined in subsequent sections. Survival time was also recorded, and survival to day 30 post-infection was considered to be a cure.
The first experiment conducted consisted of administration of a divided 3×10 mg/kg p.o. dose administered on days 1, 2, and 3 post-infection vs. a single 1×30 mg/kg po dose administered on day 1 post-infection. On day 4 post-infection, blood smears of all animals were prepared and stained with Giemsa. […] Compounds were administered orally in the SSV vehicle.

P. berghei ANKA strain [5] = assay: treatment: 3x3 mg/kg and 3x1 mg/kg po divided doses in infected mice; format: in vivo, Plasmodium berghei; conditions: for Activity (%) p.o. SSV: percent reduction of parasitemia day 4
Summary of the method: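 NMRI mice infected i.v. with 2×10^7 P. berghei ANKA-parasitized erythrocytes on day 0, then dosed orally in SSV vehicle at 3×3 or 3×1 mg/kg on days 1–3. Day-4 Giemsa smears gave percent parasitemia reduction versus untreated controls; survival to day 30 counted as cure.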

P. berghei ANKA strain [6] = assay: prophylactic activity, single 100 mg/kg po dose before infection; format: in vivo, Plasmodium berghei; conditions: reduction of parasitemia day 3 post-infection
[7] = tested on: P. falciparum NF54 strain (sensitive to standard antimalarials); assay: semiautomated microdilution assay, [3H]-hypoxanthine incorporation, NF54 strain; format: cell-based, Plasmodium falciparum; conditions: Plasmodium falciparum, NF54, 72 h, read-out: IC50 (ng/ml) NF54
Summary of the method: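 Asynchronous stock cultures → intraerythrocytic forms; semiautomated microdilution; IC50 by logit regression.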

P. falciparum = assay: in vitro potency against P. falciparum (strain not stated); format: cell-based; conditions: Plasmodium falciparum
neuroblastoma cell line = assay: toxicity in a neuroblastoma cell line; format: cell-based
[8] = Rane test, single 640 mg/kg doses in mice; format: in vivo
[9] = single dose po in SSV, mice, percent reduction in parasitemia on day three post-infection
[10] = 3 × 10 mg/kg days 1, 2, 3 post-infection
[11] = 3 × 1 mg/kg days 1, 2, 3 post-infection
[12] = 3 × 3 mg/kg days 1, 2, 3 post-infection

SMILES: C[C@H]1[C@H](OC(=O)CCC(=O)O)O[C@@H]2O[C@@]3(C)CC[C@H]4[C@H](C)CC[C@@H]1[C@@]24OO3 [AS, artesunate, reference compound]
- Activity (%) 3 mg/kg SSV po ([1]; percent reduction in parasitemia day 3 post-infection, single 3 mg/kg po in SSV): 66%
- Activity (%) 10 mg/kg SSV po ([1]; percent reduction in parasitemia day 3 post-infection, single 10 mg/kg po in SSV): 87%
- Survival (days) 10 mg/kg SSV po ([1]; single 10 mg/kg po in SSV): 7.0 days
- Time of Recrudescence [2]: 8.6 days
- ED50 ([3]; Plasmodium berghei, po): 4.7 mg/kg
- ED90 [3, 9]: 19 mg/kg
- ED99 [3, 9]: 60 mg/kg
- Activity (%) p.o. SSV (P. berghei ANKA strain [4]; 1 × 30 mg/kg single dose day 1 post-infection): 83.83%
- Survival (days) p.o. SSV (P. berghei ANKA strain [4]; [10]): 11 days
- Activity (%) p.o. SSV (P. berghei ANKA strain [4]; [10]): 98.62%
- Cures (P. berghei ANKA strain [4]; 3 × 10 mg/kg, survival to day 30 post-infection = cure, cured/treated mice): 0/5
- Survival (days) p.o. SSV (P. berghei ANKA strain [5]; [11]): 6.8 days
- Activity (%) p.o. SSV (P. berghei ANKA strain [5]; [11]): 39%
- Survival (days) p.o. SSV (P. berghei ANKA strain [5]; [12]): 9.4 days
- Activity (%) p.o. SSV (P. berghei ANKA strain [5]; [12]): 78%
- Prophylactic Activity (%) (P. berghei ANKA strain [6]; single 100 mg/kg po 24 h before infection): 6.28%
- Prophylactic Activity (%) (P. berghei ANKA strain [6]; single 100 mg/kg po at 0 h): 92.44%

SMILES: C1CCC2(CC1)OOC1(O2)C2CC3CC(C2)CC1C3 (stereo not drawn) [OZ03]
- IC50 [7]: 1.6 ng/mL (≈ 6.05 nM)
- IC50 (P. falciparum): 1 to 5 ng/mL (≈ 3.78 to 18.9 nM)
- toxicity in a neuroblastoma cell line (neuroblastoma cell line): no toxicity
- toxicity at single 640 mg/kg doses in mice in the Rane test [8]: no toxicity
